In one assay the target is TRPA1 (Mus musculus (Mouse), UniProt Q8BLA8). Nature of the assay: IonWorks Barracuda (IWB) automated patch clamp detection of TRPA1 inhibitory activity. The assay is classed as cell-based. The following applies: for IC50: HEK293 cells stably expressing TRPA1. Here is the method: The inhibitory activity of some compounds in the examples of the present invention (as shown in Table 1) on transient receptor potential channel protein TRPA1 was tested in this example. The compound of formula A (WO2010075353) was used as a positive control compound: […]
Ion Works Barracuda (IWB) automated patch clamp detection was used as test method: HEK293 cells stably expressing TRPA1 were placed in DMEM medium containing 15 μg/mL Blasticidin S HCl, 200 μg/mL Hygromycin B and 10% FBS in the T175 culture flask, and cultured in 37° C., 5% CO2 incubator. When the cell density reached about 80%, the culture medium was removed, rinsed with phosphate buffered saline (PBS) without calcium and magnesium. 3 mL of Trypsin was added to digest for 2 min, 7 mL of culture medium was added to terminate the digestion. The cells were collected to 15 mL centrifuge tube and centrifuged at 800 rpm for 3 min. After the supernatant was removed, the cells were added to appropriate volume of extracellular fluid for re-suspending, and the cell density was controlled at 2-3×10^6/mL for IWB experiment. Extracellular fluid formulation (in mM): 140 NaCl, 5 KCl, 1 MgCl2, 10 HEPES, 0.5 EGTA, 10 Glucose (pH 7.4); intracellular fluid formulation (in mM): 140 CsCl, 10 HEPES, 5 EGTA, 0.1 CaCl2, 1 MgCl2 (pH 7.2). 28 mg/mL of amphotericin B was freshly prepared with DMSO on the day of experiment, and then final concentration of 0.1 mg/mL was prepared with intracellular fluid.
Population patch clamp (PPC) plate was used in IWB experiment. The entire detection process was automatically carried out by the instrument. Extracellular fluid was added into 384 wells of PPC plate, and 6 µL of the intracellular fluid was added into plenum (under the PPC plate), 6 µL of cell fluid was added for sealing test, and finally the intracellular fluid in plenum was replaced with amphotericin B-containing intracellular fluid to establish a whole-cell recording mode after perforating sealed cells. The sampling frequency for recording TPRA1 current was 10 kHz, the cells were clamped at 0 mV, the voltage stimulation command (channel protocol) was a ramp voltage from −100 mV to +100 mV for 300 ms. This voltage stimulation was applied every 10 s, mTRPA1current was induced by 300 µM AITC.
Data recording and current amplitude measurement export were carried out by IWB software (version 2.5.3, Molecular Devices Corporation, Union City, CA). No statistics was recorded for holes with sealing impedance lower than 20 MQΩ. The original current data was corrected by software for leakage reduction. TRPA1 current amplitude was measured at +100 mV. […] If IC50 value of HC030031 exceeded 3 times the average IC50 value previously obtained on each plate, it would be re-tested. The dose-effect curve of compounds and IC50 were fitted and calculated by GraphPad Prism 5.02 (GraphPad Software, San Diego, CA).
Some compounds in the examples of the present invention were detected by lonWorks Barracuda (IWB) automated patch clamp detection method for IC50 inhibitory activity.
In general terms: Patch clamp records ionic current or voltage across a cell membrane.

A further assay concerns SH-SY5Y cells. As to the kind of experiment: Cytotoxicity test (CCK-8), neurotoxicity. The following applies: Homo sapiens, 72 h. The assay is classed as cell-based. Here is the method:
In this example, hepatotoxicity and neurotoxicity of compound I-1 and S-duloxetine were detected.
HepG-2 and SH-SY5Y cells were placed in 10 cm dish and cultured at 37° C., 5% CO2 in a cell incubator. Trypsin was used to digest and resuspend cells and cells were counted. The cells were transferred to 96-well plate with 8000 cells in a well (100 μl/well), cultured at 37° C., 5% CO2 in a cell incubator for 24 hrs. A serial of gradient concentration dilutions of compound I-1 (prepared in example 2 of the present invention) with 2-fold dilution were prepared, and the system was 100 μL/well. The supernatant of cell culture system in the 96-well plate was removed on the first day, and fresh-prepared drug concentration system was add into culture plate wells (duplicate wells were set). The cells were cultured at 37° C., 5% CO2 in a cell incubator for 72 h. […] Microplate reader was used to measure the absorbance at 450 nm. Data was processed to calculate cytotoxicity, and IC50 was calculated by GraphPad Prism. […]
A (Dosing): the absorbance of wells containing cells, CCK-8 solution and drug solution.
A (control): the absorbance of wells containing medium and CCK-8 solution and without cells.
A (0 Dosing): the absorbance of wells containing cells and CCK-8 solution but without drug solution […]

Where two headings read alike, the source gives them in different places.

The results in this text go back to patent US20250042884A1, “3-ARYLOXYL-3-FIVE-MEMBERED HETEROARYL PROPYLAMINE COMPOUND AND USE THEREOF” (Shanghai Leado Pharmatech Co. Ltd., priority 2018, published 2025).

Sequence of TRPA1 (Q8BLA8 whole entry): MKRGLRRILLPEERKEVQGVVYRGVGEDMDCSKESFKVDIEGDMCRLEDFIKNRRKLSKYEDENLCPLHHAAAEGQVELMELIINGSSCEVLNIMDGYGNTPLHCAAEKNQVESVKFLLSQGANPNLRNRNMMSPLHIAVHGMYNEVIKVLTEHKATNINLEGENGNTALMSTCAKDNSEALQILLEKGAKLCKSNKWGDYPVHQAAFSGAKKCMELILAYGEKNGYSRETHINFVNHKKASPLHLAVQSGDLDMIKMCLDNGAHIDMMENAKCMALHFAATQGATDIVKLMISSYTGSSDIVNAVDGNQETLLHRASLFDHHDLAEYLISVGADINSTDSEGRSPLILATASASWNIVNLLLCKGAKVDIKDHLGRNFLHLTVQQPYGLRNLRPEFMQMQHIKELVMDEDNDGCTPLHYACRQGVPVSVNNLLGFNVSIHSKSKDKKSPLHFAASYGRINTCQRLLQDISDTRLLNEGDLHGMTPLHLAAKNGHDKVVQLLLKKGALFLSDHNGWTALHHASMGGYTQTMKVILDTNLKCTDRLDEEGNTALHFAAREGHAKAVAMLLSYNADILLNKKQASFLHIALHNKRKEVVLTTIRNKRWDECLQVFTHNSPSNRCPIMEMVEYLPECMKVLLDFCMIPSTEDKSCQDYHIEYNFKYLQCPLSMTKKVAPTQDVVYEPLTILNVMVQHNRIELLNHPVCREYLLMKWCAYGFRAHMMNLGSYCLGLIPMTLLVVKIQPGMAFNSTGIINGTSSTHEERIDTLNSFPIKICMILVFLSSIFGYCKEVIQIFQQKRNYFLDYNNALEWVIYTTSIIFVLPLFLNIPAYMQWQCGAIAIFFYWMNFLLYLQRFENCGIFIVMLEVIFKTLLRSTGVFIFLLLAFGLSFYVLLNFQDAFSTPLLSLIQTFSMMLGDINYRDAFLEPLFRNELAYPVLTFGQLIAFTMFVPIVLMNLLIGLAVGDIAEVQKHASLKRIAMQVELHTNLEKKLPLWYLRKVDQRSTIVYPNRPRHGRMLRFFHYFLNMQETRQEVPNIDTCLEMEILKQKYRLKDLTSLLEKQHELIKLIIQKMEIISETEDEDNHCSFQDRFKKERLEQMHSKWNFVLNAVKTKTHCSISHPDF

The term IC50 denotes the point on the concentration scale where inhibition reaches its midpoint. `CNCC[C@@H](Oc1cccc2ccoc12)c1cccs1` [Compound I-1, (R)-3-(benzofuran-7-yloxy)-N-methyl-3-(thiophen-2-yl)propyl-1-amine]: the half-inhibitory concentration (IC50) at TRPA1 (FIG. 1, read-out: IC50 on TRPA1, automated patch clamp) is 2.06 µM; at TRPA1 (current induced by AITC, read-out: IC50 (μM), inhibitory activity on TRPA1 in the automated patch clamp detection test), 1 to 5 µM; in the assay with SH-SY5Y cells, approximately 101 µM. The “activity ratio, IC50 of compound C2/IC50 of compound I-1” value on TRPA1 (TRPA1, automated patch clamp) is “about 6.3”.
